From US10208071B2, “Use of agonists of formyl peptide receptor 2 for treating ocular inflammatory diseases” (Allergan, Inc., priority 2013, dated 2019)
Read-outs that look alike come from different tables or passages of the source.

Molecular target: FPR2 (Homo sapiens (Human), UniProt P25090)
Test: FLIPR Ca+2 response, HEK-Gα16 cells stably expressing the human FPR2 receptor (Table 4)
Type: cell-based
Conditions: for FPR2 (efficacy): efficacy in parentheses
Protocol: FLIPR: HEK-Gα16 cells stably expressing the human FPR2 receptor was utilized. Cells were plated into 384-well poly-D-lysine coated plates at a density of 18,000 cells per well one day prior to use. The growth media was DMEM medium supplemented with 10% fetal bovine serum (FBS), 1% antibiotic-antimycotic, 50 μg/ml hygromycin, and 400 μg/ml geneticin. On the day of the experiment, the cells were washed twice with Hank's Balanced Salt Solution supplemented with 20 mM HEPES (HBSS/hepes buffer). The cells were then dye loaded with 2 μM Fluo-4 diluted in the HBSS/Hepes buffer and incubated at 37° C. for 40 minutes. Extracellular dye was removed by washing the cell plates four times prior to placing the plates in the FLIPR (Fluorometric Imaging Plate Reader, Molecular Devices). Ligands were diluted in HBSS/Hepes buffer and prepared in 384-well microplates. Data for Ca^+2 responses were obtained in relative fluorescence units.

FPR2, sequence (P25090 whole entry): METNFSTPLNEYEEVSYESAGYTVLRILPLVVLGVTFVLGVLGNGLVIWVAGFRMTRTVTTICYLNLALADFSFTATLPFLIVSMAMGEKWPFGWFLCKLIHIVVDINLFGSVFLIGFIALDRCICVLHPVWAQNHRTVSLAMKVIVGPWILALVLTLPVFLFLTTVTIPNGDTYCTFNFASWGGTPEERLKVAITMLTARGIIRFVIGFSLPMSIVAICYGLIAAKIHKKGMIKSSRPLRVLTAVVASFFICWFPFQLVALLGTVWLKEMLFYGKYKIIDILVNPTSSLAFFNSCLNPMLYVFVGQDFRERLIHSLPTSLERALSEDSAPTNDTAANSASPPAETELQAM

For O=C(O)[C@@H]1C2CCC([C@@H]1C(=O)Nc1ccc(Br)cc1)C21CC1 (relative stereo) [Compound 14, rel-(2R,3S)-3-[(4-bromophenyl)carbamoyl] spiro[bicyclo[2.2.1]heptane-7,1′-cyclopropane]-2-carboxylic acid], the EC50 was 4 nM and the “FPR2 (efficacy)” value was “nM (0.90)”.
CC1(CCc2ccccc2)NC(=O)N(NC(=O)Nc2ccc(Br)cc2)C1=O (single isomer, unassigned; (+)) [Compound 57] was tested, and the “FPR2 (efficacy)” value was “nM (0.93)”.
With CCC1(C(C)C)NC(=O)N(NC(=O)Nc2ccc(Br)cc2)C1=O (single isomer, unassigned; (+)) [Compound 66, (+)1-(4-bromophenyl)-3-[4-ethyl-2,5-dioxo-4-(propan-2-yl)imidazolidin-1-yl]urea] the “FPR2 (efficacy)” value was “nM (0.96)”.
In the case of NC(=O)C1C(C(=O)Nc2ccc(Br)cc2)C2CCC1C21CC1 (single isomer, unassigned; (-)) [Compound 45, (−) N-(4-bromophenyl)spiro[bicyclo[2.2.1]heptane-7,1′-cyclopropane]-2,3-dicarboxamide], the “FPR2 (efficacy)” value is reported as “nM (0.91)”.
CCC1(C(C)C)NC(=O)N(NC(=O)Nc2ccc(Br)cc2)C1=O (single isomer, unassigned; (-)) [Compound 67, (−)1-(4-bromophenyl)-3-[4-ethyl-2,5-dioxo-4-(propan-2-yl)imidazolidin-1-yl]urea] was tested, and the “FPR2 (efficacy)” value was “nM (1.0)”.
CCC(C)[C@@H](NC(=O)Nc1ccc(Br)cc1)C(=O)O (stereo in doubt) [Compound 122, (2R,3R)-2-{[(4-bromophenyl)carbamoyl]amino}-3-methylpentanoic acid] was tested, and the “FPR2 (efficacy)” value was “μM (0.59)”.
For CCC1(CCc2ccccc2)NC(=O)N(NC(=O)Nc2ccc(Br)cc2)C1=O (stereo not drawn) [Compound 1, 1-(4-bromophenyl)-3-[4-ethyl-2,5-dioxo-4-(2-phenylethyl)imidazolidin-1-yl]urea], the “FPR2 (efficacy)” value was “(0.96)” and the EC50 (unit inferred) was 3 nM.
For CCC[C@H](NC(=O)Nc1ccc(Br)cc1)C(=O)NCC(=O)O [Compound 2, {[(2S)-2-{[(4-bromophenyl)carbamoyl]amino}pentanoyl]amino}acetic acid], the “FPR2 (efficacy)” value was “(0.91)” and the EC50 (unit inferred) was 2 nM.
CCC1(C(C)C)NC(=O)N(NC(=O)Nc2ccc(Br)cc2)C1=O (stereo not drawn) [Compound 4, 1-(4-bromophenyl)-3-[4-ethyl-2,5-dioxo-4-(propan-2-yl)imidazolidin-1-yl]urea] was tested, and the “FPR2 (efficacy)” value was “(0.90)”.
With CC[C@H](C)[C@H](NC(=O)Nc1ccc(Br)cc1F)C(=O)O [Compound 5, (2S,3S)-2-{[(4-bromo-2-fluorophenyl)carbamoyl]amino}-3-methylpentanoic acid] the “FPR2 (efficacy)” value was “(0.96)” and the EC50 (unit inferred) was 31 nM.
For CC(C)C[C@H](NC(=O)Nc1ccc(Br)cc1)C(=O)NC(C)(C)C(=O)O [Compound 6, 2-{[(2S)-2-{[(4-bromophenyl)carbamoyl]amino}-4-methylpentanoyl]amino}-2-methylpropanoic acid], the “FPR2 (efficacy)” value was “(0.91)” and the EC50 (unit inferred) was 1.66 nM.
With CC(C)C[C@H](NC(=O)Nc1ccc(Br)cc1F)C(=O)NCC(=O)O [Compound 7, {[(2S)-2-{[(4-bromo-2-fluorophenyl)carbamoyl]amino}-4-methylpentanoyl]amino}acetic acid] the “FPR2 (efficacy)” value was “(1.0)” and the EC50 (unit inferred) was 3.57 nM.
CC(C)C[C@H](NC(=O)Nc1ccc(Br)cc1)C(=O)NCC(=O)O [Compound 8, {[(2S)-2-{[(4-bromophenyl)carbamoyl]amino}-4-methylpentanoyl]amino}acetic acid] was tested, and the “FPR2 (efficacy)” value was “(0.78)”.
With CC(C)C[C@H](NC(=O)Nc1ccc(Br)cc1)C(=O)O [Compound 9, (2S)-2-{[(4-bromophenyl)carbamoyl]amino}-4-methylpentanoic acid] the “FPR2 (efficacy)” value was “(0.77)” and the EC50 (unit inferred) was 5.95 nM.
With O=C(Nc1ccc(Br)cc1)NC(Cc1ccccc1)C(=O)NC1CCCCNC1=O (stereo not drawn) [Compound 10, 2-{[(4-bromophenyl)carbamoyl]amino}-N-(2-oxoazepan-3-yl)-3-phenylpropanamide] the EC50 was 11 nM and the “FPR2 (efficacy)” value was “nM (0.89)”.
With O=C(O)C1C(C(=O)Nc2ccc(I)cc2)C2C=CC1C21CC1 (stereo not drawn) [Compound 11, 3-[(4-iodophenyl)carbamoyl] spiro[bicyclo[2.2.1]heptane-7,1′-cyclopropane]-5-ene-2-carboxylic acid] the EC50 was 1.6 nM and the “FPR2 (efficacy)” value was “nM (1.00)”.
For O=C(O)C1C(C(=O)Nc2ccc(Br)cc2)C2C=CC1C21CC1 (stereo not drawn) [Compound 12, 3-[(4-bromophenyl)carbamoyl] spiro[bicyclo[2.2.1]heptane-7,1′-cyclopropane]-5-ene-2-carboxylic acid], the EC50 was 4 nM and the “FPR2 (efficacy)” value was “nM (0.97)”.
CC(=O)c1ccc(NC(=O)Nc2ccc3c(c2)C(=O)N(CCc2c[nH]cn2)C(c2ccc(C#N)cc2)C3)cc1 (stereo not drawn) [Compound 13, 1-(4-acetylphenyl)-3-{3-(4-cyanophenyl)-2-[2-(1H-imidazol-4-yl)ethyl]-1-oxo-1,2,3,4-tetrahydroisoquinolin-7-yl}urea] was tested, and the “FPR2 (efficacy)” value was “nM (0.80)”.
O=C(O)C1C(C(=O)Nc2ccc(I)cc2)C2CCC1C21CC1 (stereo not drawn) [Compound 15, 3-[(4-iodophenyl)carbamoyl] spiro[bicyclo[2.2.1]heptane-7,1′-cyclopropane]-2-carboxylic acid] was tested, and the EC50 was 0.6 nM and the “FPR2 (efficacy)” value was “nM (0.87)”.
CSc1ccc(NC(=O)Nc2ccc3c(c2)C(=O)N(CCCN)C(c2ccc(C#N)cc2)C3)cc1 (stereo not drawn) [Compound 16, 1-[2-(3-aminopropyl)-3-(4-cyanophenyl)-1-oxo-1,2,3,4-tetrahydroisoquinolin-7-yl]-3-[4-(methylsulfanyl)phenyl]urea] was tested, and the “FPR2 (efficacy)” value was “nM (0.70)”.
CSc1ccc(NC(=O)Nc2ccc3c(c2)C(=O)N(CCc2c[nH]cn2)C(c2ccc(C#N)cc2)C3)cc1 (stereo not drawn) [Compound 17, 1-{3-(4-cyanophenyl)-2-[2-(1H-imidazol-4-yl)ethyl]-1-oxo-1,2,3,4-tetrahydroisoquinolin-7-yl}-3-[4-(methylsulfanyl)phenyl]urea] was tested, and the EC50 was 5.5 nM and the “FPR2 (efficacy)” value was “nM (0.92)”.
In the case of CS(=O)(=O)c1ccc(NC(=O)Nc2ccc3c(c2)C(=O)N(CCCN)C(c2ccc(C#N)cc2)C3)cc1 (stereo not drawn) [Compound 18, 1-[2-(3-aminopropyl)-3-(4-cyanophenyl)-1-oxo-1,2,3,4-tetrahydroisoquinolin-7-yl]-3-[4-(methylsulfonyl)phenyl]urea], the “FPR2 (efficacy)” value is reported as “nM (0.86)”.
With CS(=O)(=O)c1ccc(NC(=O)Nc2ccc3c(c2)C(=O)N(CCc2c[nH]cn2)C(c2ccc(C#N)cc2)C3)cc1 (stereo not drawn) [Compound 19, 1-{3-(4-cyanophenyl)-2-[2-(1H-imidazol-4-yl)ethyl]-1-oxo-1,2,3,4-tetrahydroisoquinolin-7-yl}-3-[4-(methylsulfonyl)phenyl]urea] the “FPR2 (efficacy)” value was “nM (1.00)”.
With CC(C)=C1C2C=CC1C(C(=O)Nc1ccc(I)cc1)C2C(=O)O (stereo not drawn) [Compound 20, 3-[(4-iodophenyl)carbamoyl]-7-(propan-2-ylidene)bicyclo[2.2.1]hept-5-ene-2-carboxylic acid] the “FPR2 (efficacy)” value was “nM (0.94)”.
